Measured values published in patent US12344610B2, “APOL1 inhibitors and methods of use” (Maze Therapeutics, Inc., priority 2022, dated 2025).

The compounds below were run against T1, APOL1 G2 (Homo sapiens, UniProt O14791, DEL388-389) (assay: APOL1-mediated calcium transport (calcium influx) assay, HEK T-REx/GCaMP6f/APOL1 G2 K6.3 cells, FLIPR TETRA). Conditions: prevention of calcium influx; geometric mean of at least 2 assay runs; † = average of a technical replicate from a single assay run.
T1 construct: expressed in transfected cells; host or cells: HEK293 T-REx clonal line stably expressing GCaMP6f (HEK T-REx/GCaMP6f/APOL1 G2 K6.3), doxycycline induced
T1 sequence (O14791 with tags, fused parts or gaps DEL388-389): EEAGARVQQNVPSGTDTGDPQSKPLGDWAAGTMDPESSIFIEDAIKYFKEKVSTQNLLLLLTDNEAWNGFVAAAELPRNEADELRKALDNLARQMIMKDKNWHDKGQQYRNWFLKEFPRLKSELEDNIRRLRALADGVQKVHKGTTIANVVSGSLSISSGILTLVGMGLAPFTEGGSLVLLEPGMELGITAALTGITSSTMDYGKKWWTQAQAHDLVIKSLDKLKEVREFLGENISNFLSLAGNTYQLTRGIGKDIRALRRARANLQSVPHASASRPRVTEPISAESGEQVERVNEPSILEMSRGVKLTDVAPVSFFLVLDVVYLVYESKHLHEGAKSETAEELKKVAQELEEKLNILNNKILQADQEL
Format: cell-based
Method in brief: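 A HEK293 T-REx clone stably expressing GCaMP6f had APOL1 G2 induced with doxycycline (20 ng/mL solution added) for 6 h. Cells were then washed into Ca2+-free Tyrode's buffer (pH 7.4) and preincubated with compounds (duplicate 8-point) for 10 min at room temperature. Ca2+ injection to 5 mM final produced FLIPR GCaMP fluorescence, giving AC50 for influx inhibition (geometric mean, ≥2 runs).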

How did the AC50 turn out when `CS(=O)(=O)C1CN(c2ncc(OCCN3CCC4(CC3)C(=O)Nc3ccc(Cl)cc34)cn2)C1` [Compound 302, 5-chloro-1′-(2-{[2-(3-methanesulfonylazetidin-1-yl)pyrimidin-5-yl]oxy}ethyl)-1,2-dihydrospiro[indole-3,4′-piperidin]-2-one] was run?
The AC50 was 1030 nM.

For `C[C@]1(O)C[C@@H](N2C(=O)OCc3cc(OCCN4CCC5(CC4)C(=O)Nc4ccc(Cl)cc45)cnc32)C1` [Compound 289, 5-chloro-1′-[2-({2-oxo-1-[(cis)-3-hydroxy-3-methylcyclobutyl]-1H,2H,4H-pyrido[2,3-d][1,3]oxazin-6-yl]oxy)ethyl]-1,2-dihydrospiro[indole-3,4′-piperidin]-2-one], which AC50 is on record?
Its AC50 is 552 nM.

For `O=C(c1c(F)cc(OCCN2CCC3(CC2)C(=O)Nc2ccc(Cl)cc23)cc1F)N1CCS(=O)(=O)CC1` [Compound 259, 4-[4-(2-{5-chloro-2-oxo-1,2-dihydrospiro[indole-3,4′-piperidin]-1′-yl}ethoxy)-2,6-difluorobenzoyl]-1λ^6-thiomorpholine-1,1-dione], which AC50 is on record?
The AC50 was 651 nM.

Which AC50 does the source give for `CC1(O)CN(c2ncc(OCCN3CCC4(CC3)C(=O)Nc3ccc(Cl)cc34)cn2)C1` [Compound 300, 5-chloro-1′-(2-{[2-(3-hydroxy-3-methylazetidin-1-yl)pyrimidin-5-yl]oxy}ethyl)-1,2-dihydrospiro[indole-3,4′-piperidin]-2-one] here?
The AC50 was 674 nM.

`CS(=O)(=O)c1ccc(OCCN2CCC3(CC2)C(=O)N(CCO)c2ccc(Cl)cc23)cc1C(F)F` [Compound 265, 5-chloro-1′-{2-[3-(difluoromethyl)-4-methanesulfonylphenoxy]ethyl}-1-(2-hydroxyethyl)-1,2-dihydrospiro[indole-3,4′-piperidin]-2-one] was tested. Which AC50 did it give?
Its AC50 is 697 nM.

`O=C(c1ccc(OCCN2CCC3(CC2)C(=O)Nc2ccc(Cl)cc23)cc1F)N1CCOCC1` [Compound 231, 5-chloro-1′-{2-[3-fluoro-4-(morpholine-4-carbonyl)phenoxy]ethyl}-1,2-dihydrospiro[indole-3,4′-piperidin]-2-one] was tested. Which AC50 did it give?
Its AC50 is 1020 nM.

Which AC50 does the source give for `CC[C@]1(O)C[C@H](N2C(=O)CCc3cc(OCCN4CCC5(CC4)C(=O)Nc4ccc(Cl)cc45)cnc32)C1` (single isomer, unassigned) [Compound 290, 5-chloro-1′-[2-({7-oxo-8-[(trans)-3-ethyl-3-hydroxycyclobutyl]-5,6,7,8-tetrahydro-1,8-naphthyridin-3-yl}oxy)ethyl]-1,2-dihydrospiro[indole-3,4′-piperidin]-2-one] here?
The AC50 was 253 nM.

`COCCN1C(=O)C2(CCN(CCOc3ccc(S(C)(=O)=O)cc3)CC2)c2cc(C#N)ccc21` [Compound 25, 1′-[2-(4-methanesulfonylphenoxy)ethyl]-1-(2-methoxyethyl)-2-oxo-1,2-dihydrospiro[indole-3,4′-piperidine]-5-carbonitrile] was tested. Which AC50 did it give?
Its AC50 is 651 nM.

Which AC50 does the source give for `O=C1Nc2ccc(Cl)cc2C12CCN(CCOc1ccc(S(=O)(=O)CCO)cc1)CC2` [Compound 198, 5-chloro-1′-{2-[4-(2-hydroxyethanesulfonyl)phenoxy)ethyl}-1,2-dihydrospiro[indole-3,4′-piperidin]-2-one] here?
The AC50 was 631 nM.

For `O=C1Nc2ccc(Cl)cc2C12CCN(CCOc1ccc(S(=O)(=O)[C@H]3C[C@H](O)C3)cc1)CC2` [Compound 215, 5-chloro-1′-[2-(4-{[(trans)-3-hydroxycyclobutyl]sulfonyl}phenoxy)ethyl]-1,2-dihydrospiro[indole-3,4′-piperidin]-2-one], which AC50 is on record?
The AC50 was 1130 nM.

`CS(=O)(=O)C1(c2ccc(OCCN3CCC4(CC3)C(=O)Nc3ccc(Cl)cc34)cc2)COC1` [Compound 195, 5-chloro-1′-{2-[4-(3-methanesulfonyloxetan-3-yl)phenoxy]ethyl}-1,2-dihydrospiro[indole-3,4′-piperidin]-2-one] was tested. Which AC50 did it give?
Its AC50 is 604 nM.

`CS(=O)(=O)C1(c2ccc(OCCN3CCC4(CC3)C(=O)Nc3ccc(C(F)F)cc34)cc2)CC(O)C1` (single isomer, unassigned) [Compound 281, 5-(difluoromethyl)-1′-(2-{4-[(cis) or (trans)-3-hydroxy-1-methanesulfonylcyclobutyl]phenoxy}ethyl)-1,2-dihydrospiro[indole-3,4′-piperidin]-2-one] was tested. Which AC50 did it give?
The AC50 was 1310 nM.

Which AC50 does the source give for `O=C(c1ccc(OCCN2CCC3(CC2)C(=O)Nc2ccc(Cl)cc23)cc1F)N1CC2(C1)CS(=O)(=O)C2` [Compound 239, 6-[4-(2-{5-chloro-2-oxo-1,2-dihydrospiro[indole-3,4′-piperidin]-1′-yl}ethoxy)-2-fluorobenzoyl]-2λ^6-thia-6-azaspiro[3.3]heptane-2,2-dione] here?
Its AC50 is 1540 nM.

`C[C@]1(O)C[C@@H](N2C(=O)CCc3cc(OCCN4CCC5(CC4)C(=O)Nc4ccc(Cl)cc45)cnc32)C1` [Compound 275, 5-chloro-1′-[2-({7-oxo-8-[(cis)-3-hydroxy-3-methylcyclobutyl]-5,6,7,8-tetrahydro-1,8-naphthyridin-3-yl}oxy)ethyl]-1,2-dihydrospiro[indole-3,4′-piperidin]-2-one] was tested. Which AC50 did it give?
The AC50 was 640 nM.

Which AC50 does the source give for `O=C1Nc2ccc(Cl)cc2C12CCN(CCOc1ccc(S(=O)(=O)C3(C(=O)N4CCC4)CC3)cc1)CC2` [Compound 228, 1′-[2-(4-{[1-(azetidine-1-carbonyl)cyclopropyl]sulfonyl}phenoxy)ethyl]-5-chloro-1,2-dihydrospiro[indole-3,4′-piperidin]-2-one] here?
Its AC50 is 1200 nM.

Which AC50 does the source give for `CC(O)c1ncc(OCCN2CCC3(CC2)C(=O)Nc2ccc(C(F)F)cc23)cc1C(F)(F)F` (single isomer, unassigned) [Compound 288, 5-(difluoromethyl)-1′-[2-({6-[(1R) or (1S)-1-hydroxyethyl]-5-(trifluoromethyl)pyridin-3-yl}oxy)ethyl]-1,2-dihydrospiro[indole-3,4′-piperidin]-2-one] here?
Its AC50 is 369 nM.

How did the AC50 turn out when `CS(=O)(=O)C1(c2ncc(OCCN3CCC4(CC3)C(=O)Nc3ccc(C#N)cc34)cc2F)CC1` [Compound 283, 1′-(2-{[5-fluoro-6-(1-methanesulfonylcyclopropyl)pyridin-3-yl]oxy}ethyl)-2-oxo-1,2-dihydrospiro[indole-3,4′-piperidine]-5-carbonitrile] was run?
Its AC50 is 2000 nM.

Which AC50 does the source give for `O=C1CCc2cc(OCCN3CCC4(CC3)C(=O)Nc3ccc(Cl)cc34)ccc2N1[C@H]1C[C@H](O)C1` [Compound 224, 5-chloro-1′-[2-({2-oxo-1-[(trans)-3-hydroxycyclobutyl]-1,2,3,4-tetrahydroquinolin-6-yl}oxy)ethyl]-1,2-dihydrospiro[indole-3,4′-piperidin]-2-one] here?
Its AC50 is 830 nM.

`O=C1Nc2ccc(Cl)cc2C12CCN(CCOc1ccc(S(=O)(=O)C3(CO)CC3)cc1)CC2` [Compound 225, 5-chloro-1′-[2-(4-{[1-(hydroxymethyl)cyclopropyl]sulfonyl}phenoxy)ethyl]-1,2-dihydrospiro[indole-3,4′-piperidin]-2-one] was tested. Which AC50 did it give?
The AC50 was 847 nM.

`CN1C(=O)CCc2cc(OCCN3CCC4(CC3)C(=O)Nc3ccc(Cl)cc34)ccc21` [Compound 27, 5-chloro-1′-[2-[(1-methyl-2-oxo-3,4-dihydroquinolin-6-yl)oxy]ethyl]spiro[indoline-3,4′-piperidine]-2-one] was tested. Which AC50 did it give?
Its AC50 is 510 nM.

How did the AC50 turn out when `O=C(c1ccc(OCCN2CCC3(CC2)C(=O)Nc2ccc(Cl)cc23)cc1F)N1CCC1` [Compound 234, 1′-{2-[4-(azetidine-1-carbonyl)-3-fluorophenoxy]ethyl}-5-chloro-1,2-dihydrospiro[indole-3,4′-piperidin]-2-one] was run?
Its AC50 is 786 nM.

With `O=C1Nc2ccc(Cl)cc2C12CCN(CCOc1ccc3c(c1)CCS3(=O)=O)CC2` [Compound 196, 5-(2-{5-chloro-2-oxo-1,2-dihydrospiro[indole-3,4′-piperidin]-1′-yl}ethoxy)-2,3-dihydro-1λ^6-benzothiophene-1,1-dione] as the compound, how does the AC50 read?
The AC50 was 696 nM.

`CS(=O)(=O)c1ccc(OCCN2CCCC3(CC2)C(=O)Nc2ccccc23)cc1` (stereo not drawn) [Compound 26, 1-(2-(4-(methylsulfonyl)phenoxy)ethyl)spiro[azepane-4,3′-indolin]-2′-one] was tested. Which AC50 did it give?
The AC50 was 943 nM.

`CS(=O)(=O)c1ccc(OCCN2CCC3(CC2)C(=O)Nc2ccc(C#N)cc23)cc1C(F)CF` (single isomer, unassigned) [Compound 221, 1′-(2-{3-[(1S or 1R)-1,2-difluoroethyl]-4-methanesulfonyl-phenoxy}ethyl)-2-oxo-1,2-dihydrospiro [indole-3,4′-piperidine]-5-carbonitrile] was tested. Which AC50 did it give?
Its AC50 is 598 nM.

With `CS(=O)(=O)c1ccc(OCCN2CCC3(CC2)C(=O)N(CCO)c2ccc(C#N)cc23)cc1C(F)F` [Compound 266, 1′-{2-[3-(difluoromethyl)-4-methanesulfonylphenoxy]ethyl}-1-(2-hydroxyethyl)-2-oxo-1,2-dihydrospiro[indole-3,4′-piperidine]-5-carbonitrile] as the compound, how does the AC50 read?
The AC50 was 862 nM.

`CC(O)c1ncc(OCCN2CCC3(CC2)C(=O)Nc2ccc(Cl)cc23)cn1` (stereo not drawn) [Compound 284, 5-chloro-1′-(2-{[2-(1-hydroxyethyl)pyrimidin-5-yl]oxy}ethyl)-1,2-dihydrospiro[indole-3,4′-piperidin]-2-one] was tested. Which AC50 did it give?
The AC50 was 756 nM.

Which AC50 does the source give for `CN1C(=O)C2(CCN(CCOc3ccc(C4(S(C)(=O)=O)COC4)cc3)CC2)c2cc(C#N)ccc21` [Compound 251, 1′-{2-[4-(3-methanesulfonyloxetan-3-yl)phenoxy]ethyl}-1-methyl-2-oxo-1,2-dihydrospiro[indole-3,4′-piperidine]-5-carbonitrile] here?
The AC50 was 546 nM.
